Source: US20240009239A1, “THERAPEUTIC TARGETING OF MESOTHELIN IN ACUTE MYELOID LEUKEMIA WITH CHIMERIC ANTIGEN RECEPTOR T CELL THERAPY” (FRED HUTCHINSON CANCER CENTER, priority 2020, published 2024)

Legend:
[1] = system: ADAM17-mediated MSLN shedding; test: Cell surface mesothelin on Nomo-1 by flow cytometry after GM6001; assay type: cell-based; details: Nomo-1 cells, GM6001 50 uM, 48 hours, vs DMSO control
Experimental: Cell surface abundance and viability were measured by flow cytometry (FIG. 2A) and shed MSLN was quantified by ELISA (FIG. 2B). […] Data presented are mean tumor specific lysis+/−standard deviation from 3 technical replicates at indicated E:T ratios for 3 independent experiments. […] Secreted levels of IFN-g (left panel) and TNF-a (right panel) were measured after 8 hours of T cell/AML co-culture at E:T 10:1 by ELISA. Data presented are mean+/−standard deviation from 3 technical replicates. Statistical significance was determined by unpaired Student's t test, assuming unequal variances. p<0.05(*), p<0.005(**), p<0.0005(***).
Nomo-1 and Kasumi-1 were obtained from ATCC and maintained in RPMI with FBS (10% for Nomo-1, 20% for Kasumi-1) and L-glutamine (2 mM). […] The Kasumi-1 MSLN+ cell line was engineered by transducing Kasumi-1 cells with a lentivirus encoding MSLN driven by the ELF1a promoter.
For in vivo CAR T study, Nomo-1 cells, which express endogenous level of MSLN, and Kasumi-1 cells engineered to express MSLN with a lentivirus construct (Kasumi-1 MSLN+) were transplanted into NSG mice. Mock transduced MSLN-directed CAR T cells were infused 1 week (Nomo-1) and 2 weeks (Kasumi-1 MSLN+) following leukemic cell injection. Leukemic burden was measured by bioluminescence IVIS imaging weekly.

[2] = system: Nomo-1 cells; test: Viability of Nomo-1 cells after GM6001 without CAR T cells; assay type: cell-based; details: GM6001 treatment, data not shown
Text: FIGS. 2A-2D. […] FIGS. 2A-2B. […] FIG. 2C. […] FIG. 2D.
AML cell lines and GM6001 treatment.

In the case of `CNC(=O)[C@H](Cc1c[nH]c2ccccc12)NC(=O)[C@@H](CC(=O)NO)CC(C)C` [GM6001], the “level of cell surface mesothelin” value [1] is reported as “increased” and the “cell viability of Nomo-1 cells in the absence of CAR T cells” value [2] is reported as “did not significantly impact”.
